The target of the assay is T1, Seed linoleate 13S-lipoxygenase-1 (Glycine max, UniProt P08170).
T1 sequence (P08170 whole entry): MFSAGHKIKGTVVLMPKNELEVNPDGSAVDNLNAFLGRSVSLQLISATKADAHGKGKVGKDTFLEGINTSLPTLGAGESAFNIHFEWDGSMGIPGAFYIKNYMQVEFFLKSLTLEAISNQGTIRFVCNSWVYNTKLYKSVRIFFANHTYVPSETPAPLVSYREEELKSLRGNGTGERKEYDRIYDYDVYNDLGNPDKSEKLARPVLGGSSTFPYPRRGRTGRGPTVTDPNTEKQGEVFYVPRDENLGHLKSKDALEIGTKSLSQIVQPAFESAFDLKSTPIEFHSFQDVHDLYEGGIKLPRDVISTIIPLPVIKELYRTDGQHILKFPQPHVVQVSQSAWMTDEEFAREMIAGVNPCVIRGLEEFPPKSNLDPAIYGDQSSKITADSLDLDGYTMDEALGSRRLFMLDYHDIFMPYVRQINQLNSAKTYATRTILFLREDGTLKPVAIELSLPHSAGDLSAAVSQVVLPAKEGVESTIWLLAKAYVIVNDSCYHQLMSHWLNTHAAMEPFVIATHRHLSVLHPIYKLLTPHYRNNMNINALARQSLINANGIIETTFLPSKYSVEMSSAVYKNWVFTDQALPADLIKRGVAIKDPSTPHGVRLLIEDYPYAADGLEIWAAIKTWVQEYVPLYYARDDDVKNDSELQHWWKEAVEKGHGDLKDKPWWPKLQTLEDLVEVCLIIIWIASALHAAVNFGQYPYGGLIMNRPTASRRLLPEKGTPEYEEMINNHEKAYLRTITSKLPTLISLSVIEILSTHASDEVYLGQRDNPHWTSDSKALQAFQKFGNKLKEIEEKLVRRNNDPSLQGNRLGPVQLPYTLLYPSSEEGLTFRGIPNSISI
Kind of assay: Inhibitory activity against Soybean type 1 Lipoxygenase (SBLO) was determined.

Here are results for 7 compounds from ChEMBL document CHEMBL1126362, “Episulfide inhibitors of lipoxygenase” (Bioorg Med Chem Lett, 1992).

In the case of `CCCCCCCCC1OC1CCCCCCCC(=O)O` (configuration not stated), the Ki (usually the equilibrium dissociation constant of an inhibitor or competing ligand from its target) is > 100 µM.
As for `CCCCCC1OC1CCCCCCCCCCC(=O)O` (configuration not stated), the Ki was > 100 µM.
In turn, `CCCCCC1SC1C/C=C/CCCCCCCC(=O)O` (configuration not stated) yielded a Ki of 2 µM.
With `CCCCC/C=C/CC1OC1CCCCCCCC(=O)O` (configuration not stated), the Ki was > 100 µM.
Consider `CCCCCCCCC1SC1CCCCCCCC(=O)O` (configuration not stated), for which the Ki was > 100 µM.
In the case of `CCCCCC1SC1CCCCCCCCCCC(=O)O` (configuration not stated) it was 4 µM; in that of `CCCCC/C=C/CC1SC1CCCCCCCC(=O)O` (configuration not stated), > 100 µM.
